From patent US20190375708A1 (VenatoRx Pharmaceuticals, Inc., priority 2018, published 2019) come the findings set out here.

Bounds are passed on as bounds.

Data set [1] relates to HBV replication in HepAD38 cells. As to the kind of experiment: Anti-HBV replication assay in HepAD38 cells (QPCR of extracellular HBV DNA). The data set is classed as cell-based, HBV (genotype D, serotype ayw). Particulars: Hepatitis B virus, 168 h, 7 days incubation, extracellular HBV DNA by QPCR, read-out: Anti-HBV EC50. In short, it runs like this:
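Stably transfected HepG2-derived HepAD38 cells express HBV (genotype D, ayw) once tetracycline is withdrawn. Compounds act for 7 days, after which secreted HBV DNA is quantified by QPCR relative to DMSO-treated wells.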

The nature of data set [2]: In vitro cytotoxicity assay (MTT cell viability) in HepG2 cells. The data set is classed as cell-based, human. The settings on record: human. Put shortly:
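Read-out: MTT formazan absorbance at 492 nm, expressed as % of vehicle signal; CC50 by 4-parameter non-linear regression. Parental HepG2, 20,000 cells/well, treated 7 days with compound from 30 μM down to 1.0 nM.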

Usually EC50 stands for the concentration that produces a half-maximal response. As usually defined, the CC50 is the concentration at which the toxic effect on the cells reaches its halfway point. On to `Cc1c(C(=O)Nc2cc(F)c(F)c(F)c2)c(C)n(C)c1C(=O)C(=O)Nc1cccnc1` [Example 320, 1,2,4-trimethyl-5-(2-oxo-2-(pyridin-3-ylamino)acetyl)-N-(3,4,5-trifluorophenyl)-1H-pyrrole-3-carboxamide], for which the EC50 in data set [1] is less than 50 nM. Further, in data set [2], the cytotoxic concentration (CC50) at 7 days is more than 30000 nM.
With `Cc1c(C(=O)Nc2cc(F)c(F)c(F)c2)c(C)n(C)c1C(=O)C(=O)Nc1ccc(F)nc1` [Example 321, 5-(2-((6-fluoropyridin-3-yl)amino)-2-oxoacetyl)-1,2,4-trimethyl-N-(3,4,5-trifluorophenyl)-1H-pyrrole-3-carboxamide], the EC50 in data set [1] is less than 50 nM. The molecule further gave a half-maximal cytotoxic concentration (CC50) at 7 days in data set [2] of 5000 to 30000 nM.
The like results for `Cc1c(C(=O)Nc2cc(F)c(F)c(F)c2)c(C)n(C)c1C(=O)C(=O)Nc1ccc(F)c(F)c1` [Example 322, 5-(2-((3,4-difluorophenyl)amino)-2-oxoacetyl)-1,2,4-trimethyl-N-(3,4,5-trifluorophenyl)-1H-pyrrole-3-carboxamide] were, in that order, less than 50 nM and 5000 to 30000 nM.
Regarding `Cc1csc(NC(=O)C(=O)c2c(C)c(C(=O)Nc3cc(F)c(F)c(F)c3)c(C)n2C)n1` [Example 323, 1,2,4-trimethyl-5-(2-((4-methylthiazol-2-yl)amino)-2-oxoacetyl)-N-(3,4,5-trifluorophenyl)-1H-pyrrole-3-carboxamide], the concentration for a half-maximal effect (EC50) in data set [1] is less than 50 nM. Besides, the CC50 at 7 days in data set [2] was in the range of 5000 to 30000 nM.
`Cc1c(C(=O)Nc2cc(F)c(F)c(F)c2)c(C)n(C)c1C(=O)C(=O)NC1CCC(F)(F)CC1` [Example 324, 5-(2-((4,4-difluorocyclohexyl)amino)-2-oxoacetyl)-1,2,4-trimethyl-N-(3,4,5-trifluorophenyl)-1H-pyrrole-3-carboxamide]: the EC50 in data set [1] is less than 50 nM. The molecule further yielded a 50% cytotoxic concentration (CC50) at 7 days in data set [2] of 5000 to 30000 nM.
The like results for `Cc1c(C(=O)Nc2ccc(F)nc2)c(C)n(C)c1C(=O)C(=O)NC1(C)CCOCC1` [Example 325, N-(6-fluoropyridin-3-yl)-1,2,4-trimethyl-5-(2-((4-methyltetrahydro-2H-pyran-4-yl)amino)-2-oxoacetyl)-1H-pyrrole-3-carboxamide] were, in that order, 50 to 499 nM and more than 30000 nM.
As to `Cc1c(C(=O)Nc2ccnc(Cl)c2)c(C)n(C)c1C(=O)C(=O)NC1(C)CCOCC1` [Example 326, N-(2-chloropyridin-4-yl)-1,2,4-trimethyl-5-(2-((4-methyltetrahydro-2H-pyran-4-yl)amino)-2-oxoacetyl)-1H-pyrrole-3-carboxamide], the concentration giving a half-maximal response (EC50) in data set [1] is less than 50 nM. Also, the 50% cytotoxic concentration (CC50) at 7 days in data set [2] was more than 30000 nM.
The like results for `Cc1nc(CCNC(=O)C(=O)c2c(C)c(C(=O)Nc3ccc(F)c(C)c3)c(C)n2C)c(C)s1` [Example 327, 5-(2-((2-(2,5-dimethylthiazol-4-yl)ethyl)amnio)-2-oxoacetyl)-N-(4-fluoro-3-methylphenyl)-1,2,4-trimethyl-1H-pyrrole-3-carboxamide] were, in that order, less than 50 nM and more than 30000 nM.
For the molecule `Cc1cc(NC(=O)c2c(C)c(C(=O)C(=O)NCCN3CCSCC3)n(C)c2C)ccc1F` [Example 328, N-(4-fluoro-3-methylphenyl)-1,2,4-trimethyl-5-(2-oxo-2-((2-thiomorpholinoethyl)amino)acetyl)-1H-pyrrole-3-carboxamide], the EC50 in data set [1] is 50 to 499 nM. In addition, in data set [2], the half-maximal cytotoxic concentration (CC50) at 7 days was more than 30000 nM.
The like results for `CCN(CC)CCNC(=O)C(=O)c1c(C)c(C(=O)Nc2ccc(F)c(C)c2)c(C)n1C` [Example 329, 5-(2-((2-(diethylamino)ethyl)amino)-2-oxoacetyl)-N-(4-fluoro-3-methylphenyl)-1,2,4-trimethyl-1H-pyrrole-3-carboxamide] were, in that order, 500 to 1000 nM and more than 30000 nM.
For `Cc1cc(NC(=O)c2c(C)c(C(=O)C(=O)N[C@@H]3CCC[C@H](O)C3)n(C)c2C)ccc1F` [Example 330, N-(4-fluoro-3-methylphenyl)-5-(2-(((1R,3S)-3-hydroxycyclohexyl)amino)-2-oxoacetyl)-1,2,4-trimethyl-1H-pyrrole-3-carboxamide], in data set [1], the EC50 is less than 50 nM. This molecule also displayed a CC50 at 7 days in data set [2] of more than 30000 nM.
The like results for `Cc1c(C(=O)Nc2ccnc(Cl)c2)c(C)n(C)c1C(=O)C(=O)NC(C)(C)CN1CCOCC1` [Example 331, N-(2-chloropyridin-4-yl)-1,2,4-trimethyl-5-(2-((2-methyl-1-morpholinopropan-2-yl)amino)-2-oxoacetyl)-1H-pyrrole-3-carboxamide] were, in that order, less than 50 nM and more than 30000 nM.
The like results for `Cc1c(C(=O)Nc2ccc(F)c(Cl)c2)c(C)n(C)c1C(=O)C(=O)NC(C)(C)CN1CCOCC1` [Example 332, N-(3-chloro-4-fluorophenyl)-1,2,4-trimethyl-5-(2-((2-methyl-1-morpholinopropan-2-yl)amino)-2-oxoacetyl)-1H-pyrrole-3-carboxamide] were, in that order, less than 50 nM and more than 30000 nM.
The like results for `Cc1c(C(=O)Nc2ccc(F)c(Cl)c2)c(C)n(C)c1C(=O)C(=O)N[C@]1(C)CC[C@@H](O)CC1` [Example 333, N-(3-chloro-4-fluorophenyl)-5-(2-(((1r,4r)-4-hydroxy-1-methylcyclohexyl)amino)-2-oxoacetyl)-1,2,4-trimethyl-1H-pyrrole-3-carboxamide] were, in that order, less than 50 nM and more than 30000 nM.
For `Cc1c(C(=O)Nc2ccc(F)c(F)c2)c(C)n(C)c1C(=O)C(=O)NC12CCC(O)(CC1)CC2` [Example 335, N-(3,4-difluorophenyl)-5-(2-((4-hydroxybicyclo[2.2.2]octan-1-yl)amino)-2-oxoacetyl)-1,2,4-trimethyl-1H-pyrrole-3-carboxamide], in data set [1], the EC50 was less than 50 nM. For the same molecule, the CC50 at 7 days in data set [2] was more than 30000 nM.
For the molecule `CCCOC1(CNC(=O)C(=O)c2c(C)c(C(=O)Nc3ccc(F)c(C)c3)c(C)n2C)CCCCC1` [Example 336, N-(4-fluoro-3-methylphenyl)-1,2,4-trimethyl-5-(2-oxo-2-(((1-propoxycyclohexyl)methyl)amino)acetyl)-1H-pyrrole-3-carboxamide], the EC50 in data set [1] was less than 50 nM. The molecule also had a CC50 at 7 days in data set [2] of 5000 to 30000 nM.
The like results for `Cc1cc(NC(=O)c2c(C)c(C(=O)C(=O)NCC3(N)CCCCC3)n(C)c2C)ccc1F` [Example 337, 5-(2-(((1-aminocyclohexyl)methyl)amino)-2-oxoacetyl)-N-(4-fluoro-3-methylphenyl)-1,2,4-trimethyl-1H-pyrrole-3-carboxamide] were, in that order, 500 to 1000 nM and 5000 to 30000 nM.
The like results for `Cc1cc(NC(=O)c2c(C)c(C(=O)C(=O)Nc3ccc(F)cn3)n(C)c2C)cnc1F` [Example 338, N-(6-fluoro-5-methylpyridin-3-yl)-5-(2-((5-fluoropyridin-2-yl)amino)-2-oxoacetyl)-1,2,4-trimethyl-1H-pyrrole-3-carboxamide] were, in that order, 500 to 1000 nM and more than 30000 nM.
The like results for `Cc1cc(NC(=O)c2c(C)c(C(=O)C(=O)Nc3cccnc3)n(C)c2C)cnc1F` [Example 339, N-(6-fluoro-5-methylpyridin-3-yl)-1,2,4-trimethyl-5-(2-oxo-2-(pyridin-3-ylamino)acetyl)-1H-pyrrole-3-carboxamide] were, in that order, 500 to 1000 nM and more than 30000 nM.
Turning to `Cc1cc(NC(=O)c2c(C)c(C(=O)C(=O)Nc3ccc(F)nc3)n(C)c2C)cnc1F` [Example 340, N-(6-fluoro-5-methylpyridin-3-yl)-5-(2-((6-fluoropyridin-3-yl)amino)-2-oxoacetyl)-1,2,4-trimethyl-1H-pyrrole-3-carboxamide], the EC50 in data set [1] lay within 500 to 1000 nM. Besides, the 50% cytotoxic concentration (CC50) at 7 days in data set [2] is more than 30000 nM.
The like results for `Cc1cc(NC(=O)c2c(C)c(C(=O)C(=O)Nc3ccc(F)c(F)c3)n(C)c2C)cnc1F` [Example 341, 5-(2-((3,4-difluorophenyl)amino)-2-oxoacetyl)-N-(5-fluoro-5-methylpyridin-3-yl)-1,2,4-trimethyl-1H-pyrrole-3-carboxamide] were, in that order, 50 to 499 nM and more than 30000 nM.
The like results for `Cc1csc(NC(=O)C(=O)c2c(C)c(C(=O)Nc3cnc(F)c(C)c3)c(C)n2C)n1` [Example 342, N-(6-fluoro-5-methylpyridin-3-yl)-1,2,4-trimethyl-5-(2-((4-methylthiazol-2-yl)amino)-2-oxoacetyl)-1H-pyrrole-3-carboxamide] were, in that order, 500 to 1000 nM and more than 30000 nM.
The like results for `Cc1cc(NC(=O)c2c(C)c(C(=O)C(=O)NC3CCC(F)(F)CC3)n(C)c2C)cnc1F` [Example 343, 5-(2-((4,4-difluorocyclohexyl)amino)-2-oxoacetyl)-N-(6-fluoro-5-methylpyridin-3-yl)-1,2,4-trimethyl-1H-pyrrole-3-carboxamide] were, in that order, 50 to 499 nM and more than 30000 nM.
Take `CO[C@H]1CC[C@@H](NC(=O)C(=O)c2c(C)c(C(=O)Nc3cnc(F)c(C)c3)c(C)n2C)CC1` [Example 344, N-(6-fluoro-5-methylpyridin-3-yl)-5-(2-(((1s,4s)-4-methoxycyclohexyl)amino)-2-oxoacetyl)-1,2,4-trimethyl-1H-pyrrole-3-carboxamide]: the EC50 in data set [1] was in the range of 50 to 499 nM. In data set [2], this molecule had a 50% cytotoxic concentration (CC50) at 7 days of more than 30000 nM.
The like results for `CO[C@H]1CC[C@@H](NC(=O)C(=O)c2c(C)c(C(=O)Nc3ccnc(Cl)c3)c(C)n2C)CC1` [Example 345, N-(2-chloropyridin-4-yl)-5-(2-(((1s,4s)-4-methoxycyclohexyl)amino)-2-oxoacetyl)-1,2,4-trimethyl-1H-pyrrole-3-carboxamide] were, in that order, less than 50 nM and more than 30000 nM.
